The record followed here is US8889696B2, “Substituted pyrido[2,3-d]pyrimidin-7(8H)-ones and therapeutic uses thereof” (Temple University—Of The Commonwealth System Of Higher …, priority 2009, dated 2014).

For one data set, the system named is CD-1 female mice. Put plainly: Toxicity study in mice. The note with it: female, CD-1, mouse, in vivo, 7 days. It counts as in vivo. Here is the method:
. DMSO was used as a placebo. Three CD-1 female mice were used per group. Drugs were administered intraperitoneally at 100 mg/kg. Viability, signs of toxicity and body weight were monitored over the next 7 days. […]. […] Comparative body weight studies could not be carried out for this compound due to the early death of animals. These observations agree with the known toxicity of BI-2536. […]. Following this treatment, 100% survival for >10 days after injection was observed. […]

In a further data set the test system is DU145 (prostate cancer). Put plainly: Effect on tumor cell lines (Latham assay), DU145. The settings on record: Homo sapiens, DU-145; DU145 cells, examined 96 hours after treatment; read-out: Potencies (IC50) DU 145. The format is cell-based. On the procedure: (§1) The plated cells were treated 24 hours later with a compound of the invention dissolved in DMSO at multiple concentrations ranging from 0.01 μM to 100 μM. […] When necessary, the total number of viable cells was determined by trypsinizing the wells and counting the number of viable cells, as determined by trypan blue exclusion, using a hemacytometer.

In data set [1] the test system is K562 (chronic myelogenous leukemia). Briefly: Effect on tumor cell lines (Latham assay), K562. The format is cell-based. The settings on record: Homo sapiens; K562 cells, examined 96 hours after treatment; read-out: Potencies (IC50) K 562. Here is the method: as §1

Structures are written as SMILES. Bounds are passed on as bounds.

For `CC[C@@H]1C(=O)N(C)c2cnc(Nc3ccc(C(=O)NC4CCN(C)CC4)cc3OC)nc2N1C1CCCC1` [BI-2536, reference compound], the death of mice entry in the data set on CD-1 female mice is reported as “two mice died within 24 hours while the third mouse died within 72 hours”.
`Cc1ccc(S(=O)(=O)c2cc3cnc(Nc4ccc5c(c4)CC(=O)N5)nc3n(C)c2=O)cc1` [Example 27, 2-(2-oxoindolin-5-ylamino)-8-methyl-6-tosylpyrido[2,3-d]pyrimidin-7(8H)-one] came in with a melting point of 280 °C. In the data set with DU145 (prostate cancer), the IC50 was in the range of 50 to 100 µM. Further, the IC50 in data set [1] was in the range of 25 to 50 µM.
Compound `CCCn1c(=O)c(S(=O)(=O)c2ccccc2)cc2cnc(Nc3ccc4[nH]ccc4c3)nc21` [Example 47, 2-(1H-indol-5-ylamino)-6-(phenylsulfonyl)-8-propylpyrido[2,3-d]pyrimidin-7(8H)-one] showed a melting point of 293 to 295 °C. The IC50 in the data set on DU145 (prostate cancer) is 1 to 10 µM. Besides, the IC50 in data set [1] was below 1 µM.
The matching figures for `Cc1ccc(S(=O)(=O)c2cc3cnc(Nc4cccc5[nH]ccc45)nc3n(C)c2=O)cc1` [Example 16, 2-(1H-indol-4-ylamino)-8-methyl-6-tosylpyrido[2,3-d]pyrimidin-7(8H)-one]: 295 to 300 °C, 1 to 10 µM and 1 to 10 µM.
For `Cn1c(=O)c(S(=O)(=O)c2ccc(F)c(Cl)c2)cc2cnc(Nc3ccc4[nH]ccc4c3)nc21` [Example 33, 2-(1H-indol-5-ylamino)-6-(3-chloro-4-fluorophenylsulfonyl)-8-methylpyrido[2,3-d]pyrimidin-7(8H)-one], the melting point lay within 250 to 255 °C. For the same compound, the IC50 with DU145 (prostate cancer) lay in the range of 1 to 10 µM. For the same compound, the IC50 in data set [1] was below 1 µM.
The matching figures for `Cn1c(=O)c(S(=O)(=O)c2ccc(C(=O)O)cc2)cc2cnc(Nc3ccc4[nH]ccc4c3)nc21` [Example 37, 4-(2-(1H-indol-5-ylamino)-7,8-dihydro-8-methyl-7-oxopyrido[2,3-d]pyrimidin-6-ylsulfonyl)benzoic acid]: 262 to 265 °C, 10 to 25 µM and 10 to 25 µM.
As to `COc1cc(Nc2ncc3cc(S(=O)(=O)c4ccccc4)c(=O)n(C4CCCC4)c3n2)cc(OC)c1OC` [Example 62, 2-(3,4,5-trimethoxyphenylamino)-8-cyclopentyl-6-(phenylsulfonyl)pyrido[2,3-d]pyrimidin-7(8H)-one], the melting point was 119 to 120 °C. For the same compound, in the data set on DU145 (prostate cancer), the IC50 lay in the range of 1 to 10 µM. The IC50 in data set [1] is 1 to 10 µM.
With `Cn1c(=O)c(S(=O)(=O)c2ccc(Cl)cc2)cc2cnc(Nc3cnc4ccccc4c3)nc21` [Example 5, 6-(4-chlorophenylsulfonyl)-8-methyl-2-(quinolin-3-ylamino)pyrido[2,3-d]pyrimidin-7(8H)-one], the melting point was in the range of 304 to 306 °C. In addition, in the data set with DU145 (prostate cancer), the IC50 is 10 to 25 µM. Further, the IC50 in data set [1] fell in the range of 10 to 25 µM.
Consider `CSc1ncc2cc(S(=O)(=O)c3ccc(Cl)cc3)c(=O)n(C3CCCC3)c2n1` [Example 60, 6-(4-chlorophenylsulfonyl)-8-cyclopentyl-2-(methylsulfanyl)pyrido[2,3-d]pyrimidin-7(8H)-one], for which the melting point lay in the range of 222 to 223 °C. In the data set on DU145 (prostate cancer), the IC50 lay in the range of 50 to 100 µM. In addition, the IC50 in data set [1] fell in the range of 50 to 100 µM.
For `O=c1c(S(=O)(=O)c2ccc(Cl)cc2)cc2cnc(Nc3ccc(N4CCOCC4)cc3)nc2n1C1CCCCC1` [Example 52, 6-(4-chlorophenylsulfonyl)-2-(4-morpholinophenylamino)-8-cyclohexylpyrido[2,3-d]pyrimidin-7(8H)-one], the melting point is 329 to 331 °C. For the same compound, the IC50 with DU145 (prostate cancer) lay in the range of 10 to 25 µM. The IC50 in data set [1] was 1 to 10 µM.
